Test results published in article PMC3527108 (Journal of medicinal chemistry, 2012).
Read-outs that look alike come from different tables or passages of the source.

Columns and labels:
[1] = system: GI transit in morphine naive mice; details: similar assay, similar dose (about 10 mg/kg); cited from earlier work
[2] = system: Caco-2 cells; details: cited from earlier work
[3] = system: GI transit in morphine-pelleted mice; details: cited from earlier work
[4] = low due to significant hepatic first-pass; cited from earlier work
[5] = system: Caco-2 cells; assay: Bidirectional transport in Caco-2 cells; assay type: in vitro ADME; details: apical/basolateral, up to 2 h
[6] = molecular target: mu opioid receptor (MOR) (Homo sapiens, UniProt P35372); assay: Competitive radioligand binding assay, MOR; details: from Ki values
[7] = system: opioid-induced constipation in patients; details: cited from earlier work; for patients with laxation within 4 hours after the first dose: clinical trial, subcutaneous
[8] = system: antinociception (tail flick) in mice; assay: Warm-water tail flick test; assay type: in vivo; details: morphine 10 mg/kg, dose up to 30 mg/kg

Sequence of mu opioid receptor (MOR) (P35372 whole entry, species assumed): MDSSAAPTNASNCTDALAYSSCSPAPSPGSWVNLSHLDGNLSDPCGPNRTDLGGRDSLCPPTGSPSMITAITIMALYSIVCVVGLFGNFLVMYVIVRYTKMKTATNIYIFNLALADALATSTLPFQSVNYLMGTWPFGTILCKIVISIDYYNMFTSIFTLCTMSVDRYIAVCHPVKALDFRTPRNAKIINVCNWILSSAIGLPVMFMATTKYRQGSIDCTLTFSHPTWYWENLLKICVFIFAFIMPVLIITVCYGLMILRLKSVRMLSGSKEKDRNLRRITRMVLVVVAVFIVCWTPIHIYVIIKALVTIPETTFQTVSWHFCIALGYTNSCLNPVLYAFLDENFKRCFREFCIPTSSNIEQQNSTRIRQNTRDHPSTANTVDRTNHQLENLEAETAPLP

O=C(N[C@@H]1CC[C@@]2(O)[C@H]3Cc4ccc(O)c5c4[C@@]2(CCN3CC2CC2)[C@H]1O5)c1ccncc1 [NAP, 17-cyclopropylmethyl-3, 14β-dihydroxy-4,5α-epoxy-6β-[(4’ -pyridyl)carboxamido]morphinan]
effect of compound alone on intestinal motility [1]: intestinal motility decreased | apparent permeability [2]: significantly low | ED50 in the GI transit assay ([3]; GI transit assay): 8.8 µg/kg | incidence of diarrhea ([3]; high doses): incidence of diarrhea associated with high doses

C=CCN1CC[C@]23c4c5ccc(O)c4O[C@H]2C(=O)CC[C@@]3(O)[C@H]1C5 [Naloxone]
systemic bioavailability [4]: ~ 2%

Cc1cnccc1C(=O)N[C@@H]1CC[C@@]2(O)[C@H]3Cc4ccc(O)c5c4[C@@]2(CCN3CC2CC2)[C@H]1O5 [Compound 8, 17-Cyclopropylmethyl-3,14β-dihydroxy-4,5α-epoxy-6β-{[4′-(3′-methylpyridyl)]carboxamido}morphinan]
apparent permeability / bidirectional transport [5]: low permeability

O=C(N[C@@H]1CC[C@@]2(O)[C@H]3Cc4ccc(O)c5c4[C@@]2(CCN3CC2CC2)[C@H]1O5)c1ccnc(Cl)c1 [Compound 1, 17-Cyclopropylmethyl-3,14β-dihydroxy-4,5α-epoxy-6β-{[4′-(2′-chloropyridyl)]carboxamido}morphinan]
MOR selectivity over DOR [6]: over 1000 fold

C[N@+]1(CC2CC2)CC[C@]23c4c5ccc(O)c4O[C@H]2C(=O)CC[C@@]3(O)[C@H]1C5 [MNTX, methylnaltrexone]
efficiency to induce SBM [7]: ≤ 62% | patients with laxation within 4 hours after the first dose ([7]; placebo 14%): 62% | patients with laxation within 4 hours after the first dose ([7]; placebo 15%): 48%

O=C(CNC(=O)c1ccncc1)N[C@@H]1CC[C@@]2(O)[C@H]3Cc4ccc(O)c5c4[C@@]2(CCN3CC2CC2)[C@H]1O5 [Compound 12, 17-Cyclopropylmethyl-3,14β-dihydroxy-4,5α-epoxy-6β-{2′-[(pyridine-4′′-yl)carboxamido]acetamido}morphinan]
antagonism of antinociceptive effect of morphine [8]: no apparent antagonism effect
